# Measurements as given in a melting point compilation (Tetko et al.; mined from patent text by program, amines drawn as free bases though some values may be those of a salt).
row,melting point,SMILES
1,97 °C,CCCCOc1cc(/C=C(\OCC)C(=O)O)ccc1OCCc1ccc(OS(C)(=O)=O)c(OC)c1
2,244 to 246 °C,Cc1cc(-c2nnc3c4ccccc4c(OCc4ccncc4)nn23)no1
3,200 to 205 °C,O=C1NC(=O)[C@@]2(C[C@@H](C(=O)NCCN3CCN(C(c4ccccc4)c4ccccc4)CC3)Oc3ccc(F)cc32)N1
4,128 to 129 °C,CCCCc1nc2c(N)nc(C)c(C)c2n1CCCCNC(=O)c1ccccc1
5,83 to 85 °C,CC=C(C)c1ccc(-c2ccccc2F)cc1
6,123 to 124 °C,Cc1c(C)n(CC2CC2)c2c(OCc3ccccc3)nncc12
7,200 to 201 °C,CC(=O)Nc1cnc(-c2ccccc2)nc1NCC(=O)N(C)c1ccccc1
8,168 to 170 °C,O=C(C=CC=Cc1ccccc1)C=Cc1ccc([N+](=O)[O-])cc1
9,220 to 222 °C,Cn1c2ccccc2c(=O)c2c(-c3cccc(O)c3)c(Cl)cc(Cl)c21
10,193 to 194 °C,CC1(C)OC(=O)Nc2ccc(-c3cc(F)cc(Cl)c3)cc21
11,103 to 105 °C,COC(=O)c1c(Oc2ccccc2N)c2ccccc2n1C
12,88 to 90.5 °C,C=C(Cl)CSC(=S)Nc1ccc(Cl)cc1C
13,168 to 169 °C,O=C1N(c2ccccc2)c2ccccc2C1(Cc1ccncc1)Cc1ccc([N+](=O)[O-])cc1 (stereo not drawn)
14,240 to 242 °C,Oc1ccc2nc(-c3cccc4c(O)cccc34)oc2c1
15,159 °C,CCc1cccc(-c2c(-c3ccc4nn(C)cc4c3)nsc2NC(=O)[C@@H]2C[C@H]2C)n1
16,142 to 144 °C,Cn1c(CO)cnc1[N+](=O)[O-]
17,43.5 to 44 °C,COCCCOc1cc(C[C@@H](C(=O)O)C(C)C)ccc1OC
18,135 to 137 °C,COCc1cc2c(s1)CCCc1cc(=O)n(-c3ccc(Cl)cc3)nc1-2
19,124 to 126 °C,CC(=O)OCCN(C)Cc1cc(C(=O)c2cccs2)cc(C(C)(C)C)c1O
20,140 to 142 °C,C[C@]1(COc2ccc(N3CCC(COc4ccc(CCl)cc4)CC3)cc2)Cn2cc([N+](=O)[O-])nc2O1
21,120 °C,COC(=O)CCC(=O)c1ccc(CCNC(C)=O)cc1
22,144 to 146 °C,CCCc1nc2c(N)nc(C)c(C)c2n1CCCC(C)=NOC
23,117 to 118 °C,c1ccc2c(SCc3ccncc3)ncnc2c1
24,166 to 167 °C,O=C(Nc1cccc2c1C(=O)c1c-2n[nH]c1-c1ccc(C(=O)N2CCC[C@@H]2CN2CCCC2)s1)NN1CCOCC1
25,159 to 160 °C,Cc1ncccc1Oc1ccc(NC(=O)N2CCc3c(n(C)c4ccccc34)CC2)cn1

row,melting point,SMILES
1,176 to 178 °C,COc1cc2c(c(Cl)c1Cl)C(=O)C(C)(c1ccc(Cl)cc1)C2 (stereo not drawn)
2,> 250 °C,NCC1Cc2cc(C(F)(F)F)cc(-c3cccc(F)c3)c2O1 (stereo not drawn)
3,252 to 254 °C,Cc1nsc2ccc(-n3c(=O)c(Cl)c(C(F)(F)F)n(C)c3=O)cc12
4,135 to 137 °C,Cc1ccc(S(=O)(=O)C2=C(C(=O)OC3CCCCC3)C(=O)C=C(C(=O)OC3CCCCC3)C2=O)cc1
5,160 to 161 °C,O=C1CSc2cccc(Cl)c2N1
6,168 to 170 °C,COC(=O)C=CC1=CC2=CNC=C3CC(N(C)C)C(=C23)CO1 (stereo not drawn)
7,145 to 147 °C,Nc1nc(COCC(F)(F)F)nc2nccnc12
8,173 °C,COC(=O)[C@@H]1CCC(c2cccc(O)c2)N1C(=O)CNC(=O)OCc1ccccc1 (stereo partly drawn)
9,228 to 230 °C,O=C1NCCn2c1cc1ccccc12
10,112 to 114 °C,CCCn1c(=O)n(-c2ccc3c(c2)OCO3)c2ncccc21
11,32 to 32.5 °C,CCOC(=O)c1cnc(Cl)cc1Cl
12,164 to 166 °C,CC(=NOCCOc1ccc(CC2SC(=O)NC2=O)cc1)c1ccc(-c2ccccc2)cc1 (stereo not drawn)
13,135 to 136 °C,O=C1c2c(Cl)cccc2S(=O)(=O)N1CCl
14,146 to 149 °C,Nc1ccc(C(=O)N2CCCCc3sc(Cl)cc32)cc1
15,144 to 146 °C,Cc1ccc(S(=O)(=O)OCCOc2ccc(N)c(CS(=O)(=O)c3ccccc3)c2)cc1
16,128 to 130 °C,Cc1noc(C(=O)N2CCCCC2)c1C(=O)O
17,282 to 284 °C,O=[N+]([O-])c1cnc2ccc(O)cc2c1-c1ccccc1
18,175 to 176 °C,COc1ccc(C2(CC3CO3)S(=O)(=O)CCCS2(=O)=O)cc1OC (stereo not drawn)
19,89 to 91 °C,COc1ccc(SC2SC(=O)NC2=O)cc1 (stereo not drawn)
20,270 °C,O=C(c1cc(=O)c2cc(O)ccc2[nH]1)N1CCC(Oc2ccccc2)CC1
21,123 °C,COC(=O)C(Cc1ccc(OCCn2ccc3ccc(C(=O)C4CC4)nc32)cc1)OCC(F)(F)F (stereo not drawn)
22,122 °C,Cc1cccc(C2=CCN(c3ccc(Cl)nn3)CC2)c1
23,100 °C,COc1ccc(C(=O)Nc2ccc3ccc(Oc4ccc(F)cc4)nc3n2)cc1
24,136 to 137 °C,CC1(C)OC[C@@H](CNc2c([N+](=O)[O-])cnc3cc(Br)ccc23)O1
25,95 to 99 °C,COc1ccc(-c2noc(C)c2-c2ccc(OC)cc2)cc1

row,melting point,SMILES
1,122 to 125 °C,CS(=O)(=O)c1ccc(Oc2ccc(CC(=O)O)cc2)cc1
2,86.4 to 87.4 °C,CCCCOCCOc1ccc(-c2ccc(N(C)CCOC)c(C=CC(=O)O)c2)cc1
3,92 to 95 °C,Cc1nc[nH]c1CSCCN=C(NC#N)NCCSCc1[nH]cnc1C
4,146 to 147 °C,COc1ccc2c(c1)C(=NO)c1c-2c(N2CCNCC2)nc2ccccc12
5,287 to 289 °C,CC(C)C1CCC2(C(=O)O)CCC3(C)C(CCC4C5(C)CCC(O)C(C)(C)C5CCC43C)C12 (stereo not drawn)
6,135 to 136 °C,NC1=Nc2ccccc2CC1
7,141 to 143 °C,CCCCC(C(=O)O)n1cncn1 (stereo not drawn)
8,280 to 281 °C,Cc1ccc(N2C(=O)C(O)=C(C(=O)c3ccc(C(C)C)cc3)C2c2ccc(OC(C)C)cc2)nn1 (stereo not drawn)
9,137 to 140 °C,C#CCn1c(-c2ccccc2)nc(C(=O)N(C)C)c(C)c1=O
10,185 to 189 °C,CCOC(=O)C=Cc1cc(=O)c(C(=O)O)cn1-c1ccc(O)cc1C
11,189 to 191 °C,CCc1cc(C(=O)O)c(Nc2ccccc2[N+](=O)[O-])s1
12,159 to 160 °C,FC(F)(F)c1cccc(CSc2nnc(-c3ccc4[nH]ncc4c3)o2)c1
13,189 to 191 °C,CCN1c2ncc(N)cc2C(=O)N(C)c2cccnc21
14,150 °C,O=S(=O)(/C=C/c1ccccc1)c1ncc(Cl)cn1
15,> 235 °C,Cc1cccc(C)c1-c1cc(Cl)cc2c1OC(CN1CCCCC1)C2 (stereo not drawn)
16,189 to 194 °C,CC(=O)C(=Cc1cc(O)c(O)c([N+](=O)[O-])c1)c1ccc(C)cc1
17,89 to 90 °C,COc1ccc(C2OCC(COC(C(F)(F)F)(C(F)(F)F)C(F)(F)F)(COC(C(F)(F)F)(C(F)(F)F)C(F)(F)F)CO2)cc1
18,98.5 to 99.5 °C,CC(C)(C)[Si](C)(C)OC1CN(c2ccc([N+](=O)[O-])cc2F)C1
19,199 to 201 °C,COc1cc(OC)cc(C(=CC#N)c2ccc3c(c2)nc(C)n3C)c1
20,86 °C,CCCCCCCNC(=O)N(C)c1cccc(-c2cc(F)c(CCC(=O)O)c(F)c2)c1
21,147 to 149 °C,COc1nnc(C)c(-c2ccc(SC)cn2)c1-c1ncc(Cl)cc1Cl
22,71.5 to 73.5 °C,CCOC(=O)CCSc1nnsc1-c1ccc(Cl)cc1
23,73 to 77 °C,C=CCOC(=O)/C=C/c1c[nH]c2ccc(OCc3ccccc3)cc12
24,197 to 199 °C,Cc1[nH]c(-c2ccccc2)nc1CO
25,90.5 to 92.5 °C,C=C(C)c1cnc(C2=NC(C)(C(C)C)C(=O)N2)c(C(=O)OC)c1 (stereo not drawn)

row,melting point,SMILES
1,162 °C,CCCCc1nn2c(c1Cc1ccc(-c3ccccc3)c(C(=O)O)c1)CCCC2
2,155 to 156 °C,COc1cccc(-c2ccnc(Nc3cc(OC)c(OC)c(OC)c3)n2)c1
3,113 to 115 °C,CC(=O)N(O)CCc1ccc2c(c1)C(=O)c1ccccc1CO2
4,146 to 148 °C,CN(C)CCNc1ccc(NCCCCC(=O)NOCc2ccccc2)c2c1C(=O)c1ccccc1C2=O
5,150 to 152 °C,OCCNc1cc(N2CCCC2)nc(N2CCCC2)n1
6,231 to 232 °C,Cc1sc(C(=O)O)c2c1-c1c(cnn1Cc1ccccc1)CC2
7,125 to 126 °C,CC(C)[C@@H](NCC1(O)OC[C@@H](O)[C@@H](O)[C@@H]1O)C(=O)O (stereo partly drawn)
8,192 °C,Nc1c(-c2ccccc2)oc2c(CO)cccc2c1=O
9,224 °C,O=C(N[C@H]1CC[C@H](CCN2CCC(c3cccc4c3CCO4)CC2)CC1)c1ccc(-c2cccnc2)cc1
10,96 °C,CCCCc1nc(Sc2ccc(OC)cc2)c(C(=O)OCC)[nH]1
11,95 to 97 °C,CCc1cncnc1O
12,226 to 227 °C,Cc1ccc(NC(=O)c2ccc(CN3CCN(C)CC3)c(C(F)(F)F)c2)cc1Nc1nc(-c2ccncc2)cs1
13,73 to 74 °C,COC(=O)CCc1ccc(OC2Cc3ccccc3C2)cc1
14,139 °C,CCOC(=O)c1nc(C)c(SC)c(O)n1
15,176 to 178 °C,O=C(O)c1cc(S(=O)(=O)N2CCC(Br)C(Br)C2)ccc1Cl (stereo not drawn)
16,294 to 295 °C,COc1ccc2[nH]cc(-c3cc4c(OC)ccnc4[nH]3)c2c1
17,232 to 238 °C,Cn1ccnc1Sc1ccc(Nc2c(C#N)cnc3cc(/C=C/CCN4CCOCC4)ccc23)cc1Cl
18,80 to 81 °C,COC(=O)c1ccc(O)c(C=O)c1
19,281 to 284 °C,CCCn1c(=O)c2[nH]c(/C=C/c3ccc(OC)cc3)nc2n(CCC)c1=O
20,185 to 187 °C,C#CCNC(=O)c1cccc(-c2ccc3cnc(Nc4ccc(N5CCN(C)CC5)cc4)nn23)c1
21,245 to 247 °C,O=C(O)C1CCN(c2cc(-c3ccc(Cl)cc3)nc3ccccc23)CC1
22,166 to 169 °C,O=C(NCCO)C(=O)NCCO

row,SMILES,melting point
1,O=C(CCCl)Nc1cccc(NC(=O)Nc2ccc(N(CCCl)CCCl)cc2)c1,232 to 233 °C
2,CC(N)Cc1ccc(OCC(=O)NCCc2ccc(O)cc2)cc1 (stereo not drawn),160 to 163 °C
3,COc1ccc2cc(-c3cn([C@H]4CN5CCC4CC5)nn3)ccc2c1,186 °C
4,CC(C)CC(=O)Nc1cc(-c2ccnc3c(C(=O)c4cccs4)cnn23)ccc1F,192 to 194 °C
5,CC1Sc2c(C(=O)O)c(=O)c3cc(F)c(N4CCNCC4)cc3n21 (stereo not drawn),225 to 227 °C
6,O=C1c2ccccc2OC1Br (stereo not drawn),60 °C
